According to patent US20230399319A1, “Acylsulfamide Compound and Pharmaceutical Use Therefor” (Japan Tobacco Inc., priority 2019, published 2023):
pIC50: −log10 of the molar value.

Biological target: NLRP3 inflammasome (Homo sapiens (Human), UniProt Q96P20)
Assay: Evaluation of NLRP3 inflammasome inhibitory activity (inhibition of IL-1β production in THP1-Null cells, LPS/Nigericin)
Details: for pIC50: inhibition of IL-1β production in THP1-Null cells; for inhibition at 3 µM: read-out: % inhibition at 3 μM

Chain of NLRP3 inflammasome (Q96P20 whole entry): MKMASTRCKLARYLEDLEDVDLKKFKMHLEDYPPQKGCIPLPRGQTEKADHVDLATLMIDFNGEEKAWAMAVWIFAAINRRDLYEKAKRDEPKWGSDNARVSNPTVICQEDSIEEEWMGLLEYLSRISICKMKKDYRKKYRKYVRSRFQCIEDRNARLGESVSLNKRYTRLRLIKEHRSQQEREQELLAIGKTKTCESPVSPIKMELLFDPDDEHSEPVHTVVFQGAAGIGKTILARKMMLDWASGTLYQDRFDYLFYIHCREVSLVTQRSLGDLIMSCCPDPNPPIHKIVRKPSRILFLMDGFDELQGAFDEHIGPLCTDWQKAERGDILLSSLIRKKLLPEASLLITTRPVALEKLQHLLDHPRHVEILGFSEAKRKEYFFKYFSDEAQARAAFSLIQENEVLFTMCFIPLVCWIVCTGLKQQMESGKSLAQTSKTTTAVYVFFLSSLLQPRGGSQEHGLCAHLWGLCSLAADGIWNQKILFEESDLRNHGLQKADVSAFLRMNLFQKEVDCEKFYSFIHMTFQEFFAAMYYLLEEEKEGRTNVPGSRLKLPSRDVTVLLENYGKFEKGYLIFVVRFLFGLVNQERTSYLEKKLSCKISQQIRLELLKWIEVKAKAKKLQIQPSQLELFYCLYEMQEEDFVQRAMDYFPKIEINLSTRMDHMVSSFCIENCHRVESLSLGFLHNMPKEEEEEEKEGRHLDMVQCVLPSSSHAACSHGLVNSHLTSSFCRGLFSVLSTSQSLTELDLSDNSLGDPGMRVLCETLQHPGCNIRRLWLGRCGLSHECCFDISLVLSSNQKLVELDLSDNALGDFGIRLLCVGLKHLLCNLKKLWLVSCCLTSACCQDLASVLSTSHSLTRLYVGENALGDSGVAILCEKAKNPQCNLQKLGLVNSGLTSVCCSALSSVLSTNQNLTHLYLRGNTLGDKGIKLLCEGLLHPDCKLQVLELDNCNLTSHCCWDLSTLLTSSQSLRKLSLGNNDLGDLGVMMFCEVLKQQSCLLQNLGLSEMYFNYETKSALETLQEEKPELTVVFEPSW

Row | SMILES | pIC50 | inhibition at 3 µM
1 | CCCS(=O)(=O)N1CCCN(S(=O)(=O)NC(=O)c2coc(Nc3cc(C(F)(F)F)ccc3C)n2)CC1 [Example 2-100] | 8.00 | –
2 | COC(=O)N1CCCN(S(=O)(=O)NC(=O)c2coc(Nc3cc(C(F)(F)F)ccc3C)n2)CC1 [Example 2-101] | 7.41 | –
3 | CCC(=O)N1CCCN(S(=O)(=O)NC(=O)c2coc(Nc3cc(C(F)(F)F)ccc3C)n2)CC1 [Example 2-102] | 7.30 | –
4 | Cc1ccc(C(F)(F)F)cc1Nc1nc(C(=O)NS(=O)(=O)N2CCCN(S(=O)(=O)C3CC3)CC2)co1 [Example 2-103] | 7.70 | –
5 | Cc1ncc(C(F)(F)F)cc1Nc1nc(C(=O)NS(=O)(=O)N2CCCOCC2)co1 [Example 2-104] | 5.74 | –
6 | CC(C)c1ccc(C(F)F)cc1Nc1nc(C(=O)NS(=O)(=O)N(C)C)co1 [Example 2-105] | 7.07 | –
7 | CC(C)c1ccc(C(F)F)cc1Nc1nc(C(=O)NS(=O)(=O)N2CCCOCC2)co1 [Example 2-106] | 7.36 | –
8 | Cc1ccc(C2(C#N)CC2)cc1Nc1nc(C(=O)NS(=O)(=O)N2CCCOCC2)co1 [Example 2-107] | 6.82 | –
9 | CC(C)c1cn(C(C)C)nc1Nc1nc(C(=O)NS(=O)(=O)N2CCCOCC2)co1 [Example 2-116] | 7.07 | –
10 | CC(C)c1cn(C(C)C)nc1Nc1nc(C(=O)NS(=O)(=O)N(C)C)co1 [Example 2-117] | 6.96 | –
11 | CC(C)c1ccc2c(c1Nc1nc(C(=O)NS(=O)(=O)N(C)C)co1)CCC2 [Example 2-118] | 6.59 | –
12 | CC(C)c1ccc2c(c1Nc1nc(C(=O)NS(=O)(=O)N3CCCOCC3)co1)CCC2 [Example 2-119] | 7.02 | –
13 | CC(C)c1ccc(C(F)(F)F)nc1Nc1nc(C(=O)NS(=O)(=O)N2CCCOCC2)co1 [Example 2-125] | 6.60 | –
14 | CCCCS(=O)(=O)N1CCCN(S(=O)(=O)NC(=O)c2coc(Nc3cc(C(F)(F)F)ccc3C)n2)CC1 [Example 2-126] | 8.00 | –
15 | Cc1ccc(C(F)(F)F)cc1Nc1nc(C(=O)NS(=O)(=O)N2CCCN(S(=O)(=O)CC(C)C)CC2)co1 [Example 2-128] | 7.70 | –
16 | CCN(C)S(=O)(=O)N1CCCN(S(=O)(=O)NC(=O)c2coc(Nc3cc(C(F)(F)F)ccc3C)n2)CC1 [Example 2-129] | 7.70 | –
17 | Cc1ccc(C(F)(F)F)cc1Nc1nc(C(=O)NS(=O)(=O)N2CCCN(S(=O)(=O)CCC(F)(F)F)CC2)co1 [Example 2-130] | 7.70 | –
18 | O=C(NS(=O)(=O)N1CCCOCC1)c1coc(Nc2cc(C(F)(F)F)ccc2Cl)n1 [Example 2-136] | – | -1.6%
19 | COc1ccc(C(F)(F)F)cc1Nc1nc(C(=O)NS(=O)(=O)N2CCCOCC2)co1 [Example 2-137] | 6.89 | –
20 | CC(C)c1cn(C(C)C)nc1Nc1nc(C(=O)NS(=O)(=O)N(C)C(C)C)co1 [Example 2-138] | 7.04 | –
21 | CC(C)c1cn(C(C)C)nc1Nc1nc(C(=O)NS(=O)(=O)N2CCCC2)co1 [Example 2-139] | 6.57 | –
22 | Cc1ccc(Br)cc1Nc1nc(C(=O)NS(=O)(=O)N2CCCOCC2)co1 [Example 2-140] | 7.13 | –
23 | Cc1cc(C#N)c(C(F)(F)F)cc1Nc1nc(C(=O)NS(=O)(=O)N2CCCOCC2)co1 [Example 2-142] | 5.20 | –
24 | CC(C)c1cnc(C(F)(F)F)nc1Nc1nc(C(=O)NS(=O)(=O)N2CCCOCC2)co1 [Example 2-144] | – | 23%

Row | SMILES | pIC50 | inhibition at 3 µM
25 | Cc1cn(C(C)C)nc1Nc1nc(C(=O)NS(=O)(=O)N2CCCOCC2)co1 [Example 2-147] | 6.38 | –
26 | CCCN1CCCN(S(=O)(=O)NC(=O)c2coc(Nc3cc(C(F)(F)F)ccc3C)n2)CC1 [Example 2-154] | 6.64 | –
27 | COC1CCN(S(=O)(=O)NC(=O)c2coc(Nc3cc(C(F)(F)F)ccc3C)n2)CC1 [Example 2-158] | 7.00 | –
28 | CCCS(=O)(=O)N1CCCN(S(=O)(=O)NC(=O)c2coc(Nc3cn(C(C)C)nc3C(C)C)n2)CC1 [Example 2-160] | 6.77 | –
29 | CC(C)n1cc(Nc2nc(C(=O)NS(=O)(=O)N3CCCOCC3)co2)c(C(F)(F)F)n1 [Example 2-169] | 5.77 | –
30 | CC(C)c1nn(C(C)C)cc1Nc1nc(C(=O)NS(=O)(=O)N2CCCN(S(=O)(=O)CC(C)(C)C)CC2)co1 [Example 2-170] | 6.22 | –
31 | CC(C)c1ccc(OC(F)(F)F)c(Nc2nc(C(=O)NS(=O)(=O)N3CCCOCC3)co2)c1 [Example 2-175] | 6.40 | –
32 | CC(C)c1ccc(C(F)(F)F)c(Nc2nc(C(=O)NS(=O)(=O)N3CCCOCC3)co2)c1 [Example 2-176] | 4.74 | –
33 | CCCCS(=O)(=O)N1CCCN(S(=O)(=O)NC(=O)c2coc(Nc3nn(C(C)C)cc3C(C)C)n2)CC1 [Example 2-177] | 7.33 | –
34 | CC(C)Cc1nn(C(C)C)cc1Nc1nc(C(=O)NS(=O)(=O)N2CCCOCC2)co1 [Example 2-180] | – | -3%
35 | CCCCS(=O)(=O)N1CCCN(S(=O)(=O)NC(=O)c2coc(Nc3nn(C(C)C)cc3C)n2)CC1 [Example 2-181] | 7.51 | –
36 | CCCCC(=O)N1CCCN(S(=O)(=O)NC(=O)c2coc(Nc3cc(C(F)(F)F)ccc3C)n2)CC1 [Example 2-182] | 8.00 | –
37 | Cc1ccc(C(F)(F)F)cc1Nc1nc(C(=O)NS(=O)(=O)N2CCCN(c3ncccn3)CC2)co1 [Example 2-183] | 7.82 | –
38 | Cc1ccc(C(F)(F)F)cc1Nc1nc(C(=O)NS(=O)(=O)N2CCCN(c3nccc(C(C)C)n3)CC2)co1 [Example 2-186] | 7.39 | –
39 | Cc1cn(CC(C)C)nc1Nc1nc(C(=O)NS(=O)(=O)N2CCCOCC2)co1 [Example 2-189] | – | 16%
40 | CCc1nn(C(C)C)cc1Nc1nc(C(=O)NS(=O)(=O)N2CCCOCC2)co1 [Example 2-193] | – | 46%
41 | CC(C)n1cc(Nc2nc(C(=O)NS(=O)(=O)N3CCCOCC3)co2)c(C(C)(C)C)n1 [Example 2-194] | 5.82 | –
42 | CC(C)n1cc(Nc2nc(C(=O)NS(=O)(=O)N3CCCOCC3)co2)c(C2CC2)n1 [Example 2-195] | 5.85 | –
43 | CC(C)n1cc(Nc2nc(C(=O)NS(=O)(=O)N3CCCOCC3)co2)c(C2CCC2)n1 [Example 2-196] | 5.57 | –
44 | CCCCS(=O)(=O)N1CCCN(S(=O)(=O)NC(=O)c2coc(Nc3cc(C)ccc3C)n2)CC1 [Example 2-203] | 7.74 | –
45 | Cc1cn(C(F)F)nc1Nc1nc(C(=O)NS(=O)(=O)N2CCCOCC2)co1 [Example 2-209] | – | 33%
46 | Cc1ccnc(N2CCCN(S(=O)(=O)NC(=O)c3coc(Nc4cc(C(F)(F)F)ccc4C)n3)CC2)n1 [Example 2-211] | 7.80 | –
47 | Cc1cc(F)c(C(F)(F)F)cc1Nc1nc(C(=O)NS(=O)(=O)N2CCCOCC2)co1 [Example 2-213] | 7.41 | –

Results, then the compound that gave them:

Row | pIC50 | inhibition at 3 µM | SMILES
48 | 7.05 | – | Cc1ccc(C(F)(F)F)cc1Nc1nc(C(=O)NS(=O)(=O)N2CCCN(c3ccncn3)CC2)co1 [Example 2-214]
49 | 7.21 | – | CCCC(=O)N1CCCN(S(=O)(=O)NC(=O)c2coc(Nc3cc(C(F)(F)F)ccc3C)n2)CC1 [Example 2-215]
50 | > 5.52 | – | Cc1ccc(C(F)(F)F)cc1Nc1nc(C(=O)NS(=O)(=O)N2CCc3nncn3CC2)co1 [Example 2-217]
51 | 7.15 | – | CCCC(=O)N1CCCN(S(=O)(=O)NC(=O)c2coc(Nc3cc(C(F)F)ccc3C(C)C)n2)CC1 [Example 2-223]
52 | 7.57 | – | CCCS(=O)(=O)N1CCCN(S(=O)(=O)NC(=O)c2coc(Nc3cc(C(F)F)ccc3C(C)C)n2)CC1 [Example 2-224]
53 | 7.44 | – | CCCCS(=O)(=O)N1CCCN(S(=O)(=O)NC(=O)c2coc(Nc3cc(C(F)F)ccc3C(C)C)n2)CC1 [Example 2-225]
54 | 5.82 | – | Cc1c(Nc2nc(C(=O)NS(=O)(=O)N3CCCOCC3)co2)c(C(C)C)nn1C(C)C [Example 2-227]
55 | 7.55 | – | CCCS(=O)(=O)N1CCCN(S(=O)(=O)NC(=O)c2coc(Nc3cc(C)ccc3C)n2)CC1 [Example 2-228]
56 | – | 11% | COCCCc1cc(C)c(Nc2nc(C(=O)NS(=O)(=O)N(C)C)co2)cc1C(C)C [Example 2-238]
57 | 7.14 | – | Cc1ccc(C(F)(F)F)cc1Nc1nc(C(=O)NS(=O)(=O)N2CCCN(c3cnccn3)CC2)co1 [Example 2-245]
58 | – | 44% | CC(C)c1nn2c(c1Nc1nc(C(=O)NS(=O)(=O)N3CCCOCC3)co1)OCCC2C (stereo not shown) [Example 2-248]
59 | 7.19 | – | Cc1ccc(C(F)(F)F)cc1Nc1nc(C(=O)NS(=O)(=O)N2CCCn3nccc3C2)co1 [Example 2-254]
60 | 7.82 | – | CCCS(=O)(=O)N1CCCN(S(=O)(=O)NC(=O)c2coc(Nc3cc(CC)ccc3C)n2)CC1 [Example 2-256]
61 | 7.66 | – | CCCS(=O)(=O)N1CCCN(S(=O)(=O)NC(=O)c2coc(Nc3cc(C)ccc3CC)n2)CC1 [Example 2-257]
62 | 7.74 | – | CCCS(=O)(=O)N1CCCN(S(=O)(=O)NC(=O)c2coc(Nc3cc(CC)ccc3CC)n2)CC1 [Example 2-258]
63 | 7.10 | – | Cc1ccc(C(F)(F)F)cc1Nc1nc(C(=O)NS(=O)(=O)N2CCOC(C(=O)N(C)C)CC2)co1 (stereo not shown) [Example 2-263]
64 | 7.42 | – | Cc1ccc(C(F)(F)F)cc1Nc1nc(C(=O)NS(=O)(=O)N2CCOC(C#N)CC2)co1 (stereo not shown) [Example 2-264]
65 | 6.46 | – | CCCS(=O)(=O)N1CCCN(S(=O)(=O)NC(=O)c2coc(Nc3ccccc3C)n2)CC1 [Example 2-269]
66 | 8.01 | – | CCCS(=O)(=O)N1CCCN(S(=O)(=O)NC(=O)c2coc(Nc3cc(C(F)F)ccc3C)n2)CC1 [Example 2-270]
67 | 6.03 | – | CCCS(=O)(=O)N1CCCN(S(=O)(=O)NC(=O)c2coc(Nc3cccc4ocnc34)n2)CC1 [Example 2-271]
68 | 7.57 | – | Cc1ccc(C(F)(F)F)cc1Nc1nc(C(=O)NS(=O)(=O)N2CCOC(CO)CC2)co1 (stereo not shown) [Example 2-272]
69 | 6.80 | – | Cc1ccc(C)c(Nc2nc(C(=O)NS(=O)(=O)N3CCCN(c4ncccn4)CC3)co2)c1 [Example 2-275]
70 | 6.92 | – | CCCS(=O)(=O)N1CCCN(S(=O)(=O)NC(=O)c2coc(Nc3cc(C)cc(C)c3C)n2)CC1 [Example 2-288]
71 | 7.34 | – | CCCS(=O)(=O)N1CCCN(S(=O)(=O)NC(=O)c2coc(Nc3cc(C)c(C)cc3C)n2)CC1 [Example 2-289]
72 | 7.14 | – | CCCS(=O)(=O)N1CCCN(S(=O)(=O)NC(=O)c2coc(Nc3cc(Cl)ccc3C)n2)CC1 [Example 2-291]
73 | 7.47 | – | CCCS(=O)(=O)N1CCCN(S(=O)(=O)NC(=O)c2coc(Nc3cc(Br)ccc3C)n2)CC1 [Example 2-292]
